ChEMBL document CHEMBL4706535, “The development of Coronavirus 3C-Like protease (3CL) inhibitors from 2010 to 2020” (Eur J Med Chem, 2020)

Test system: SARS-CoV-2
Test: microbe, parasite or virus in culture
Conditions: Severe acute respiratory syndrome coronavirus 2, nCoV-2019 BetaCoV/Wuhan/WIV04/2019, Vero C1008

O=C[C@H](C[C@@H]1CCNC1=O)NC(=O)[C@H](Cc1cccc(F)c1)NC(=O)c1cc2ccccc2[nH]1
EC50: 720 nM
